Measured values from publication PMC4186413, “Identification of metabolic pathways and enzyme systems involved in the in vitro human hepatic metabolism of dronedarone, a potent new oral antiarrhythmic drug” (Pharmacology Research & Perspectives, 2014).

Legend:
[1] = set-up: method as in Touboul et al. [2003]; Wadhani et al. [2006]; conditions: 400-mg twice daily, ref Touboul et al. [2003]; Wadhani et al. [2006]; cited from earlier work
MAO-B = molecular target: T1, MAO-B (Homo sapiens, UniProt P27338); test: Oxidation by recombinant human MAO-B; format: in vitro ADME; conditions: 1 mg/mL, 5 μmol/L, 30 min, no cofactor
T1 construct: purchased BD Gentest (Woburn, MA); host or cells: baculovirus-infected insect cells
Description: Recombinant human CYPs (Supersomes™; BD Gentes, Woburn, MA: CYP1A1, CYP1A2, CYP2A6, CYP2B6, CYP2C8, CYP2C9, CYP2C18, CYP2C19, CYP2D6, CYP2E1, CYP3A4 and CYP3A5), FMOs (Supersomes™: FMO1, FMO3, FMO5), MAOs (Supersomes™: MAO-A and MAO-B), and UGTs (Supersomes™: UGT1A1, UGT1A3, UGT1A4, UGT1A6, UGT1A7, UGT1A8, UGT1A9, UGT1A10, UGT2B4, UGT2B7, UGT2B15, and UGT2B17) expressed in baculovirus-infected insect cells and control microsomes from insect cells infected with wild-type baculovirus were all obtained from BD Gentest (Woburn, MA). […]
In human liver microsomes and recombinant isoforms, the percentage of metabolism was determined on the basis of unchanged drug disappearance, using the following equation [drawing 1] where UDt = 30 min represents the unchanged drug peak area after a 30-min incubation period and UDt = 0, the unchanged drug peak area at t = 0. […]
Figure 5 Contribution of individual CYPs, FMOs and MAOs to the oxidation of dronedarone and its metabolites. […] Unchanged drugs were quantified by LC/MS-MS relative to the synthetic references as described in Materials and Methods. Data are expressed as the percentage of oxidation.

T1 sequence (P27338 whole entry): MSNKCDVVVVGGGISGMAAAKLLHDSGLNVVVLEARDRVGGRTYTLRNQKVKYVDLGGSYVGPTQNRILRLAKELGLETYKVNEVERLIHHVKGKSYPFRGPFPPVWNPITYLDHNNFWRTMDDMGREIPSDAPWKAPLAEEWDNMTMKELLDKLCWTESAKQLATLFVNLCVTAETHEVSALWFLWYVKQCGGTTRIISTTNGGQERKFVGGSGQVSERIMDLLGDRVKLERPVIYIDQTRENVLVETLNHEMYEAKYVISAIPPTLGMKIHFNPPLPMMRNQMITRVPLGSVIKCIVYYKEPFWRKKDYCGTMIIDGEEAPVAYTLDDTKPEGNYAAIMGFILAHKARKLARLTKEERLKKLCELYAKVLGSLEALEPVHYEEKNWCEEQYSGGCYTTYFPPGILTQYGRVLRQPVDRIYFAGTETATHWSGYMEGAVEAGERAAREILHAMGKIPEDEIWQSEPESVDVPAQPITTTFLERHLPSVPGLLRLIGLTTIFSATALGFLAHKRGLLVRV

Metabolism by MAO-B (MAO-B) | Structure (SMILES) | Incidence of any QTc interval >500 msec [1] [%] | PR interval increase [1] [ms]
– | CCCCc1oc2ccc(NS(C)(=O)=O)cc2c1C(=O)c1ccc(OCCCN(CCCC)CCCC)cc1.Cl [Dronedarone, N-(2-Butyl-3-(4-(3-(dibutylamino)propoxy)benzoyl)-5-benzofuranyl)methanesulfonamide, hydrochloride] | 7.7 | 13.4
no metabolism occurred | CCCCNCCCOc1ccc(C(=O)c2c(CCCC)oc3ccc(NS(C)(=O)=O)cc23)cc1 [N-debutyl-dronedarone] | – | –
